Results on one compound are retold here after US20150105458A1, “LINE LEAF INULA FLOWER LACTONE A AND METHODS FOR PREPARING AND USING THE SAME FOR TREATING MULTIPLE SCLEROSIS” (SHANXI ZHENDONG PILOT BIOLOGICAL SCIENCE AND TECHNOLOGY …, priority 2012, published 2015).

One assay deals with EAE mice. The assay is described as follows: EAE model in mice, clinical course (onset and severity). It counts as in vivo, C57BL/6 mice. Particulars: intragastric administration, 50 mg/kg once per day and higher doses, day 0 to day 30; FIG. 1. Here is the method:
(§1) EAE was induced in C57BL/6 mice (six mice per group) by subcutaneous injection of 0.1 ml of […] (in PBS, 300 μg/per mouse) on day 0, emulsified with Complete Freund's adjuvant (1:1) supplemented with Mycobacterium tuberculosis H37Ra antigen (400 μg/per mouse) or with Complete Freund's adjuvant alone as a control. All mice immunized with MOG received 250 ng pertussis toxin prepared in PBS, on days 0 and 2 by intraperitoneal injection.
(§2) Line leaf inula flower lactone A 45.3 g (from Example 1) was suspended in 0.5% CMC—Na (carboxymethyl cellulose sodium) to make a mixture with final concentration as 10 mg/ml, then diluted to four concentration gradients: (1) 25 mg/kg per day; (2) 50 mg/kg per day; (3) 100 mg/kg per day; (4) 200 mg/kg per day. The drug was given to the mice by intragastric administration from day 0 to day 30.

The test system of another assay is brain tissue of EAE mice. Briefly: HE staining of brain tissue of EAE mice. It counts as in vivo, C57BL/6 mice. Particulars: intragastric administration, 50 mg/kg and higher doses; FIG. 2. Here is the method:
as §1, §2

With `C=C1C(=O)O[C@H]2C[C@@H](C)[C@@H]3[C@@H](OC(C)=O)C[C@H](O)[C@@]3(C)[C@@H](OC(C)=O)[C@H]12` [line leaf inula flower lactone A], in the assay on EAE mice, the “onset of EAE” value is “significantly delay the onset of EAE” and the “severity of the disease (EAE)” value was “reduced the severity of the disease”. Besides, in the assay on brain tissue of EAE mice, the “arrangement of the organization (brain tissue, HE staining)” value is “basically returned to normal condition”; the “inflammatory cells in brain and blood vessels (HE staining)” value was “reduced number of inflammatory cells in brain and blood vessels”.
